Data taken from PMC7801053, “Diarylalkanoids as Potent Tyrosinase Inhibitors from the Stems of Semecarpus caudata” (Evidence-based Complementary and Alternative Medicine : eCAM, 2021).
pIC50, pKi: −log10 of the molar value.

Assays:
[1] = molecular target: Tyrosinase (EC 1.14.18.1) from mushroom; assay: Tyrosinase inhibitory assay (L-DOPA substrate, absorbance at 475 nm); conditions: read-out: IC50 (tyrosinase inhibitory activity); mushroom tyrosinase 15 U/mL, L-DOPA 1.5 mM, phosphate buffer pH 6.8, preincubated 30 min, n = 3
Experimental: Optical values were measured on a Shimadzu UV-1800 spectrophotometer (Shimadzu Pte., Ltd., Singapore). […] Tyrosinase (EC 1.14.18.1) from mushroom (3933 U·mL^−1) and L-dihydroxyphenylalanine (L-DOPA) were obtained from Sigma-Aldrich (Sigma-Aldrich Pte., Ltd., Singapore). Other chemicals were of the highest grade available.
All pure compounds were dissolved in DMSO and tested at concentrations ranging from 0.01 to 100 μM. Assay mixtures in 0.1 M phosphate buffer pH 6.8 were prepared immediately before use, consisting of 100 μL of tyrosinase solution (15 U/mL) and 1900 μL of test solution. These mixtures were preincubated at room temperature for 30 min, followed by addition of 1000 μL of L-DOPA 1.5 mM in pH 6.8 phosphate buffer and incubated at room temperature for 7 min. The absorbances (A) at 475 nm were acquired on Shimadzu UV-1800 spectrophotometer. The inhibitory percentage (I%) was calculated according to the formula: I% = ((Acontrol − Asample)/Acontrol) × 100%. Data were represented as means ± standard error (n = 3). The IC50 values were determined by using GraphPad Prism software with multivariate nonlinear regression and R^2 > 0.9.

tyrosinase = conditions: read-out: tyrosinase inhibitory constant (Ki); ref Choi et al. [25]; cited from earlier work

SMILES	pIC50 [1]	pKi (tyrosinase)
O=c1[nH]cnc2nc[nH]c12 [Hypoxanthine]		< 3.00
O=C(/C=C/C=C/C=C/c1ccc(O)cc1O)c1ccc(O)cc1O [Compound 2, 2E,4E,6E-1,7-bis(2,4-dihydroxyphenyl)hepta-2,4,6-trien-1-one]	6.96	
COC1=CC(=O)C=C(OC)C1=O [Compound 3, 2,6-dimethoxybenzoquinone]	< 4.00	

Further lines, with some results ahead:

pIC50 [1]	SMILES	pKi (tyrosinase)
7.48	O=C(/C=C/C=C/c1ccc(O)cc1O)c1ccc(O)cc1O [Compound 1, 2E,4E-1,5-bis(2,4-dihydroxyphenyl)penta-2,4-dien-1-one]	
< 4.00	COc1cc(/C=C/C(=O)O)ccc1O [Compound 7, ferulic acid]	
5.63	O=C(O)/C=C/c1ccc(O)cc1 [Compound 4, p-coumaric acid]	
4.57	CC(=O)/C=C/c1ccc(O)c(O)c1 [Compound 6, trans-4-(3,4-dihydroxyphenyl)but-3-en-2-one]	
7.80	O=C(/C=C/c1ccc(O)cc1O)c1ccc(O)cc1O [Compound 8, 2,4,2′,4′-Tetrahydroxychalcone]	
